Measurements taken from US20250206701A1.
“And” between values parts separate entries of the source, which are not always exact repeats. Identical values can stand only once. “Also recorded” adds a separate entry of the source.

Assays:
5-HT1A receptor = molecular target: T1, 5-HT1A receptor (Homo sapiens, UniProt P08908); experiment: cAMP-Glo assay of 5-HT1A receptor modulation in CHO-K1/5-HT1A/Ga15 cells; assay type: cell-based; settings: +5-HT1A vs −5-HT1A cells, 4 mM forskolin, increasing ligand concentrations
T1 construct: host or cells: CHO-K1 (co-expressing Ga15)
T1 sequence (P08908 1-422): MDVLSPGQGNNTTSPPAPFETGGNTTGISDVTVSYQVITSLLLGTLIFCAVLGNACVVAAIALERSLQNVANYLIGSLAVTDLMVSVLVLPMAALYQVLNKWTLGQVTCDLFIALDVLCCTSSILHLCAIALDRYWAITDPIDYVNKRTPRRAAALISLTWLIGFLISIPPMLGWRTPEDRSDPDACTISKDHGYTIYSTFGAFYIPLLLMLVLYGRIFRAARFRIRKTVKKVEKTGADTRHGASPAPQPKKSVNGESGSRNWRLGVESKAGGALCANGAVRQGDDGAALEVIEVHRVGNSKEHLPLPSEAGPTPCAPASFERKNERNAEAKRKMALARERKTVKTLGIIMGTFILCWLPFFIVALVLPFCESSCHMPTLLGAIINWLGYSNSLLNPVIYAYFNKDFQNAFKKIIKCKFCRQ

[1] = In vitro metabolic stability / psilocin release assays (liver, intestinal, serum fractions, buffer)
5-HT2A receptor = molecular target: T2, 5-HT2A receptor (Mus musculus, UniProt P35363); experiment: Drug-induced Head Twitch Response (HTR) in mice; assay type: in vivo, C57BL/6-Elite mice; settings: 1 mg/kg i.p.; for Head Twitch Response (HTR): 15-to-30-minute window post-drug, relative to vehicle
T2 construct: tissue Charles River; host or cells: living C57BL/6-Elite mice (brain, in vivo)

[2] = Mouse PK study: plasma parent compound and psilocin metabolite after dosing of the labelled compound; settings: for Plasma concentration of psilocybin / Plasma concentration of E(VI) / AUC0-tlast/Dose of E(VI): 1 mg/kg i.v.
MAO-A = molecular target: T3, MAO-A (Homo sapiens, UniProt P21397); experiment: SAFETYscan MAO-A enzyme assay; assay type: biochemical
T3 construct: purchased Sigma
T3 sequence (P21397 1-527): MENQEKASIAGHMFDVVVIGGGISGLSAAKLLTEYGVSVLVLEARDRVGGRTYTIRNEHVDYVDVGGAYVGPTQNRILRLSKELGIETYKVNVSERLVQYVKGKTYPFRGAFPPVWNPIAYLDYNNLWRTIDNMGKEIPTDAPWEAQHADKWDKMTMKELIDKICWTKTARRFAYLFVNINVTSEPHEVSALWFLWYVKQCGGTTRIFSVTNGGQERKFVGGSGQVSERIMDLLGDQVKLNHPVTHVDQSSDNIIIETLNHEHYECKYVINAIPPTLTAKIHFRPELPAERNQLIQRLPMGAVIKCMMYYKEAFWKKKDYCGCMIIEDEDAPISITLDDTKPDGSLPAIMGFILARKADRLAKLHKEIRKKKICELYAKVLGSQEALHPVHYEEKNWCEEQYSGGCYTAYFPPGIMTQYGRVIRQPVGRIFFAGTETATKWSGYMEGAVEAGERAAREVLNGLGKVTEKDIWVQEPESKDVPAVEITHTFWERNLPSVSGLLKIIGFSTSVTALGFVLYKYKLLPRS

AVPR1A = AVPR1A (Homo sapiens, UniProt P37288); experiment: SAFETYscan calcium secondary messenger assay, AVPR1A; assay type: cell-based
[3] = 3 mg/kg oral, 24 h, individual mice, BLQ = below 0.2 ng/mL
[4] = oral doses, any dose / timepoint

T2 sequence (P35363 whole entry): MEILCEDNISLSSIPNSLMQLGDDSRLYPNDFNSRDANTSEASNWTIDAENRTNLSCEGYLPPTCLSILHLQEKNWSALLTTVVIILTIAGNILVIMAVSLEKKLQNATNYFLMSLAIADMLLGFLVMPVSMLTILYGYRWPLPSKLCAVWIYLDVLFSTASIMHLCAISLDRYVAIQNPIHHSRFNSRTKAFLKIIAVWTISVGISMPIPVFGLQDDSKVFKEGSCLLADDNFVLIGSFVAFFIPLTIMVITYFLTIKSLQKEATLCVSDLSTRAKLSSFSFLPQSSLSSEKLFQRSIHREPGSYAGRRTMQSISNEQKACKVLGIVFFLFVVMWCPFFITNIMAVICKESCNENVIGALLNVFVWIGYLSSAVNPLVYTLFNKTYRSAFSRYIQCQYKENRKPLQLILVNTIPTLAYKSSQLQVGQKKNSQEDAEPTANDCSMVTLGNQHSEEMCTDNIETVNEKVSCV
Chain of AVPR1A (P37288 whole entry): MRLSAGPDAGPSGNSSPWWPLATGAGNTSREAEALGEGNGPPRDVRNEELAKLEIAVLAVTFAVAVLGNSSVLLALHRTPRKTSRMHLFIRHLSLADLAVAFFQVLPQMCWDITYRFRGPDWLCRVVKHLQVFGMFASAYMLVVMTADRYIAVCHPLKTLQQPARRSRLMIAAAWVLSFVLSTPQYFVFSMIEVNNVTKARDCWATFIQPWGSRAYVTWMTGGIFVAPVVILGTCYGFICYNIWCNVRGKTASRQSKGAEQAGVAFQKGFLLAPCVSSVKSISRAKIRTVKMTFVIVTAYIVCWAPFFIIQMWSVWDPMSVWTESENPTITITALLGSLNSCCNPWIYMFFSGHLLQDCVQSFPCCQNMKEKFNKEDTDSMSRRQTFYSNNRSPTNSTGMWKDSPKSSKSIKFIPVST

NCCc1c[nH]c2ccc(O)cc12 [serotonin]
5-HT1A receptor modulation (change in % cAMP) (5-HT1A receptor): reduction in cAMP levels

CN(C)CCc1c[nH]c2cccc(OC(=O)OCc3ccccc3)c12 [B(II)]
dissociation to psilocin ([1]; HLM, HLS9, HIM, HIS9, AB serum, buffer control (any conditions)): did not readily dissociate to psilocin under any conditions | Head Twitch Response (HTR) (5-HT2A receptor): elicit head twitching | detection of parent compound in plasma after oral administration ([2]; 1 mg/kg oral): neither B(II) nor E(VI) were detected in plasma | Plasma concentration of psilocin ([2]; 1 mg/kg oral, 0.25 h, mean ± SD): 19.7 ± 5.50 ng/mL | Plasma concentration of psilocin ([2]; 1 mg/kg oral, 0.5 h, mean ± SD): 11.9 ± 2.03 ng/mL | Plasma concentration of psilocin ([2]; 1 mg/kg oral, 1 h, mean ± SD): 4.63 ± 0.788 ng/mL | Plasma concentration of psilocin ([2]; 1 mg/kg oral, 2 h, mean ± SD): 2.20 ± 0.850 ng/mL | Plasma concentration of psilocin ([2]; 1 mg/kg oral, 4 h, mean ± SD): 2.05 ± 0.359 ng/mL | Plasma concentration of psilocin ([2]; 1 mg/kg oral, 6 h, mean ± SD): 0.739 ± 0.288 ng/mL | Plasma concentration of psilocin ([2]; 1 mg/kg oral, 8 h, mean ± SD): 0.453 ± 0.0460 ng/mL | Cmax/Dose of psilocin ([2]; 1 mg/kg oral, dose of administered compound used, mean ± SD): 19.7 ± 5.50 kg·ng/mL/mg | Plasma concentration of psilocin ([2]; 3 mg/kg oral, 0.25 h, mean ± SD): 55.6 ± 8.67 ng/mL | Plasma concentration of psilocin ([2]; 3 mg/kg oral, 0.5 h, mean ± SD): 32.3 ± 4.98 ng/mL | Plasma concentration of psilocin ([2]; 3 mg/kg oral, 1 h, mean ± SD): 9.29 ± 3.05 ng/mL | Plasma concentration of psilocin ([2]; 3 mg/kg oral, 2 h, mean ± SD): 7.67 ± 0.921 ng/mL | Plasma concentration of psilocin ([2]; 3 mg/kg oral, 4 h, mean ± SD): 6.76 ± 2.13 ng/mL | Plasma concentration of psilocin ([2]; 3 mg/kg oral, 6 h, mean ± SD): 2.41 ± 0.845 ng/mL | Plasma concentration of psilocin ([2]; 3 mg/kg oral, 8 h, mean ± SD): 0.722 ± 0.368 ng/mL | AUC0-tlast/Dose of psilocin ([2]; 3 mg/kg oral, dose of administered compound used, mean ± SD): 20.3 ± 2.78 kg·ng·h/mL/mg | time parent compound resides in plasma post-dosing ([2]; 10 mg/kg oral): up to 4 hours | Plasma concentration of psilocin ([2]; 10 mg/kg oral, 0.25 h, mean ± SD): 306 ± 34.6 ng/mL | Plasma concentration of psilocin ([2]; 10 mg/kg oral, 0.5 h, mean ± SD): 125 ± 16.3 ng/mL | Plasma concentration of psilocin ([2]; 10 mg/kg oral, 1 h, mean ± SD): 49.6 ± 10.5 ng/mL | Plasma concentration of psilocin ([2]; 10 mg/kg oral, 2 h, mean ± SD): 20.7 ± 1.42 ng/mL | Plasma concentration of psilocin ([2]; 10 mg/kg oral, 4 h, mean ± SD): 31.4 ± 6.34 ng/mL | Plasma concentration of psilocin ([2]; 10 mg/kg oral, 6 h, mean ± SD): 11.5 ± 1.43 ng/mL | Plasma concentration of psilocin ([2]; 10 mg/kg oral, 8 h, mean ± SD): 6.38 ± 2.98 ng/mL | Cmax/Dose of psilocin ([2]; 10 mg/kg oral, dose of administered compound used, mean ± SD): 30.6 ± 3.46 kg·ng/mL/mg | psilocin levels / exposure compared with E(VI)-treated mice ([2]; oral dosing, Tables 16 and 17): higher psilocin levels

CN(C)CCc1c[nH]c2cccc(OP(=O)(O)O)c12 [psilocybin]
stability ([1]; assay buffer (enzyme-free control)): stability of psilocybin was confirmed in assay buffer | stability and conversion to psilocin ([1]; liver fractions (HLM, HLS9)): stable in liver fractions with no conversion to psilocin | Plasma concentration of psilocybin ([2]; 0.5 h, individual mice, No Peak = no detectable compound by LC-MS): No Peak and 2.35 ng/mL and 6.21 ng/mL | Plasma concentration of psilocybin ([2]; 0.5 h, mean): 4.28 (n = 2) ng/mL | Plasma concentration of psilocybin ([2]; 1 h, individual mice, No Peak = no detectable compound by LC-MS): No Peak (2×) and 1.21 ng/mL | Plasma concentration of psilocybin ([2]; 1 h, mean): 1.21 (n = 1) ng/mL | Plasma concentration of psilocybin ([2]; 2 h, individual mice, No Peak = no detectable compound by LC-MS): No Peak | Plasma concentration of psilocybin ([2]; 4 h, individual mice, No Peak = no detectable compound by LC-MS): No Peak | Plasma concentration of psilocybin ([2]; 6 h, individual mice, No Peak = no detectable compound by LC-MS): No Peak | Plasma concentration of psilocybin ([2]; 8 h, individual mice, No Peak = no detectable compound by LC-MS, bolded value considered an outlier): No Peak (2×) and 2.54 ng/mL | Plasma concentration of psilocin ([2]; 1.56 mg/kg oral, 24 h, individual mice, BLQ = below 0.2 ng/mL): BLQ | Plasma concentration of psilocin [2, 3]: BLQ | detection of parent compound in plasma after oral administration [2, 4]: not detectable in orally administered animals at any dose

CN(C)CCc1c[nH]c2cccc(O)c12 [psilocin]
5-HT1A receptor modulation (change in % cAMP) (5-HT1A receptor): reduction in cAMP levels

CN(C)CCc1c[nH]c2cccc(OC(=O)SCc3ccccc3)c12 [E(VI)]
Head Twitch Response (HTR) (5-HT2A receptor): Elevated incidences of HTR; also recorded: elicit head twitching | HTR of E(VI) compared to B(II) (5-HT2A receptor; side-by-side (FIG. 4F)): elevated response | 5-HT1A receptor modulation (change in % cAMP) (5-HT1A receptor): mild receptor modulation at higher ligand concentrations | IC50 (MAO-A): > 10 µM | IC50 (AVPR1A): > 10 µM | Plasma concentration of E(VI) ([2]; 5 min, individual mice, concentrations not considered accurate): 3.20 ng/mL and 59.0 ng/mL and 11.1 ng/mL | Plasma concentration of E(VI) ([2]; 5 min, mean ± SD, concentrations not considered accurate): 24.4 ± 30.2 ng/mL | Plasma concentration of E(VI) ([2]; 0.25 h, individual mice, concentrations not considered accurate): 72.1 ng/mL and 110 ng/mL and 7.79 ng/mL | Plasma concentration of E(VI) ([2]; 0.25 h, mean ± SD, concentrations not considered accurate): 63.3 ± 51.7 ng/mL | Plasma concentration of E(VI) ([2]; 0.5 h, individual mice, concentrations not considered accurate): 13.1 ng/mL and 9.29 ng/mL and 1.03 ng/mL | Plasma concentration of E(VI) ([2]; 0.5 h, mean ± SD, concentrations not considered accurate): 7.81 ± 6.17 ng/mL | Plasma concentration of E(VI) ([2]; 1 h, individual mice, concentrations not considered accurate): 3.14 ng/mL and 5.84 ng/mL and No Peak | Plasma concentration of E(VI) ([2]; 1 h, mean, concentrations not considered accurate): 4.49 ng/mL | Plasma concentration of E(VI) ([2]; 2 h, individual mice, values below LLOQ 1 ng/mL included): 0.776 ng/mL and 0.594 ng/mL and No Peak | Plasma concentration of E(VI) ([2]; 2 h, mean, concentrations not considered accurate): 0.685 ng/mL | Plasma concentration of E(VI) ([2]; 4 h, individual mice, BLQ = below 1 ng/mL): BLQ (2×) and No Peak | Plasma concentration of E(VI) ([2]; 6 h, individual mice, BLQ = below 1 ng/mL): No Peak (2×) and BLQ | Plasma concentration of E(VI) ([2]; 8 h, individual mice): No Peak | AUC0-tlast/Dose of E(VI) ([2]; individual mice): 20.4 kg·ng·h/mL/mg and 35.2 kg·ng·h/mL/mg and 3.40 kg·ng·h/mL/mg | AUC0-tlast/Dose of E(VI) ([2]; mean ± SD): 19.7 ± 15.9 kg·ng·h/mL/mg | detection of parent compound in plasma after oral administration ([2]; 1 mg/kg oral): neither B(II) nor E(VI) were detected in plasma | Plasma concentration of psilocin ([2]; 1 mg/kg oral, 8 h, individual mice, BLQ = below 0.2 ng/mL): BLQ | Plasma concentration of psilocin [2, 3]: No Peak (2×) and BLQ | Plasma concentration of psilocin ([2]; 10 mg/kg oral, 24 h, individual mice, BLQ = below 0.2 ng/mL): BLQ | detection of parent compound in plasma after oral administration [2, 4]: did not yield any detectable levels of E(VI); also recorded: never detected at any timepoint

N[C@@H](Cc1c[nH]c2ccccc12)C(=O)O [tryptophan]
5-HT1A receptor modulation (change in % cAMP) (5-HT1A receptor): no reduction in cellular cAMP levels
